The source of these data is article PMC11674377 (2024).

Test [1] concerns sildenafil aptamer molecular gate (SDF-Aptamer + 3' TGCAAT) (DNA, aptamer) ATTGCAAACCCTCTACCAACAATCGTACTCGTTCGACGTGATGCAAT
Description: TMB release from aptamer-gated silica nanoparticles. As to conditions: 1 µM sildenafil; immobilised aptamer gate; about 63 ± 6.2% of TMB released; control leakage 7.2 ± 4.4%.

For test [2], the system named is SDF-Aptamer (DNA, aptamer) ATTGCAAACCCTCTACCAACAATCGTACTCGTTCGACGTGA
Description: fluorescent graphene oxide assay, Langmuir one-ligand fit. As to conditions: K+ 2.7 mM, Na+ 137 mM; PBS (0.01 M phosphate, pH 7.4), 25 °C; aptamer 1 µM; unbound aptamer removed with 4 mg/mL GO; salt form used not stated (b30 mentions citrate).

Consider `CCCc1nn(C)c2c(=O)[nH]c(-c3cc(S(=O)(=O)N4CCN(C)CC4)ccc3OCC)nc12`, for which the binding result in test [1] is given as “yes”. Further, the KD (commonly the free concentration of one partner at which half of the binding sites on the other are occupied at equilibrium, for simple one-to-one binding) in test [2] is given as 205.3 ± 38.1 nM.
